These results are taken from ChEMBL document CHEMBL1134277, “N-[3-(2-Dimethylaminoethyl)-2-methyl-1H- indol-5-yl]-4-fluorobenzamide: a potent, selective, and orally active 5-HT(1F) receptor agonist potentially useful for migraine therapy” (J Med Chem, 2001).

Experiment [1] deals with T1, 5-hydroxytryptamine receptor 1F (Homo sapiens) (UniProt P30939).
T1 sequence (whole entry): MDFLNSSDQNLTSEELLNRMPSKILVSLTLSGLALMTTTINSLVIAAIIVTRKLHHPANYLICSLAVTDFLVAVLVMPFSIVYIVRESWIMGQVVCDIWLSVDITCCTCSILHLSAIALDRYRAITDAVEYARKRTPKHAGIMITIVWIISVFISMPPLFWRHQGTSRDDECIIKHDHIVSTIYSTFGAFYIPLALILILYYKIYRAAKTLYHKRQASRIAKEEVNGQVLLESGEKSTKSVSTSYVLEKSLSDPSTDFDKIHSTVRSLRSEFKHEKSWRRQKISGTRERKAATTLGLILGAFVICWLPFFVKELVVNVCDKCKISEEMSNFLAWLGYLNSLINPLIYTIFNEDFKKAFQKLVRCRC
The experiment can be described thus: In vitro agonist potency against human 5-hydroxytryptamine 1F receptor. Type of experiment: functional.

The nature of experiment [2]: Selectivity is the binding affinity towards human 5-HT1B receptor to that of human 5-HT1F receptor.
The nature of experiment [3]: Selectivity is the binding affinity towards human 5-HT1D receptor to that of human 5-HT1F receptor.
For experiment [4], the target named is T2, 5-hydroxytryptamine receptor 1F (Homo sapiens, UniProt P30939).
T2 sequence (P30939 whole entry): T1 sequence (whole entry)
Nature of the experiment: Binding affinity towards human 5-hydroxytryptamine 1F receptor.

The nature of experiment [5]: Selectivity is the binding affinity towards human 5-HT1A receptor to that of human 5-HT1F receptor.

As usually defined, the Emax is the size of the effect at its maximum, as opposed to the concentration needed. `CNS(=O)(=O)Cc1ccc2[nH]cc(CCN(C)C)c2c1` had an Emax in experiment [1] of 98%.
In general, Ki refers to the equilibrium dissociation constant of an inhibitor or competing ligand from its target. Take `CN(C)CCc1c[nH]c2cccc(NC(=O)c3ccc(F)cc3)c12`: the Selectivity was 9 in experiment [2], 3 in experiment [3] and 3 in experiment [5]. The compound also displayed a Ki in experiment [4] of 3.8 nM.
